Assay results taken from ChEMBL document CHEMBL1201862, “PubChem BioAssay data set” (2004).
Active and inactive are the calls of the source. Cut-off read from the data, not from the text of the source, for most assays here: actives have a measured EC50 and inactives only a lower limit.

What was measured:
[1] = biological target: T1, Histone-lysine N-methyltransferase NSD2 (Homo sapiens, UniProt O96028); format: biochemical
T1 sequence (O96028 whole entry): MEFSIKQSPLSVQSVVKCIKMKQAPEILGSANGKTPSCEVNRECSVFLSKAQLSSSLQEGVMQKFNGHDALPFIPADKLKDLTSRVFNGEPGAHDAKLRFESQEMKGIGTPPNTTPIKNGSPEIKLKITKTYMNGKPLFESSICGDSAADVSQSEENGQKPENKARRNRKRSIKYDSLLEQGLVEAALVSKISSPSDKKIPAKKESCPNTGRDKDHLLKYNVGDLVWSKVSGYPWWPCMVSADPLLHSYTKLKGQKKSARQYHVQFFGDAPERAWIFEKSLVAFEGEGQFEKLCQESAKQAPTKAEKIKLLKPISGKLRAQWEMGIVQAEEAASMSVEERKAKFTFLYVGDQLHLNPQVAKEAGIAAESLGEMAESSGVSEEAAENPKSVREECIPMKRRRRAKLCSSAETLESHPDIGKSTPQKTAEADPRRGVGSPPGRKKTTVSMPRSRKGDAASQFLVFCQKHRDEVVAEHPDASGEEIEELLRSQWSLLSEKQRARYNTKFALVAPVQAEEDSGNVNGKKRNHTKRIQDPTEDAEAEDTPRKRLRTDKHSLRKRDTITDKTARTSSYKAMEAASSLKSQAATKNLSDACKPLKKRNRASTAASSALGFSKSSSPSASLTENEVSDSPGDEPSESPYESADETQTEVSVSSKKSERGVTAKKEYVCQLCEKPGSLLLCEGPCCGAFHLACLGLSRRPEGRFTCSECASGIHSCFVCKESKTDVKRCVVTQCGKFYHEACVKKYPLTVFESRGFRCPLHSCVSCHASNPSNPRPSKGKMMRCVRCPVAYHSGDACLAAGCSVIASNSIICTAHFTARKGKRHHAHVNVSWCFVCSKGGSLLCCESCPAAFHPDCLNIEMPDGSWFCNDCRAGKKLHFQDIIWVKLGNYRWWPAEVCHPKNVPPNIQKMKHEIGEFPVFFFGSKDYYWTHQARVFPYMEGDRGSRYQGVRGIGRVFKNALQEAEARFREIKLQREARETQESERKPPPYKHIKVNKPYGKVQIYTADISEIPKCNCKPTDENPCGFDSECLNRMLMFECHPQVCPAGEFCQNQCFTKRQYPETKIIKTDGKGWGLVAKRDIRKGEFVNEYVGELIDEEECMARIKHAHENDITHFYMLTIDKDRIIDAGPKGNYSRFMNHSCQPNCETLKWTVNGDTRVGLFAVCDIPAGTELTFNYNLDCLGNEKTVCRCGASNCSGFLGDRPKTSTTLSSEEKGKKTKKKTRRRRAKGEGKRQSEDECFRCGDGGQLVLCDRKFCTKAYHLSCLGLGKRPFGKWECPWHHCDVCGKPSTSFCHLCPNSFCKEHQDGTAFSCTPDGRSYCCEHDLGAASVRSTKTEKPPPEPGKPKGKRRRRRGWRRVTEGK

[2] = HepG2 cell cytotoxicity, dose response, cytotoxicity control, cherry-picked samples (AID 1159577); format: functional, cell-based
[3] = P. falciparum Dd2 growth inhibitors, dose response, SYBR Green, cherry-picked samples (AID 1159567); format: functional, cell-based
[4] = inhibitors of firefly luciferase expression or activity, dose response, H4 neuroglioma cells, luminescence (AID 1990); format: functional, cell-based
[5] = tested on: Streptococcus sp. 'group A'; assay: growth inhibition of control SK(-) GAS strain, dose response, counter-screen for streptokinase expression inhibitor project, luminescence, kanamycin, BacTiterGlo, confirmation (AID 1900); format: functional, organism-based
BJ [6] = assay: cytotoxicity toward BJ-TERT fibroblasts, dose response, cell-based, RAS-independent, luminescence (AID 1933); format: functional; settings: Homo sapiens
[7] = Luminescence Cell-Based Dose Response HTS to Identify Inhibitors of 5'UTR Stem-Loop Driven Prion Protein mRNA Translation in H4 Neuroglioblastoma Cells. [Related pubchem assays: 1827 (Project Summary), 1813 (Primary HTS)]; format: functional
[8] = inhibitors of SNCA 5'UTR-driven reporter translation, confirmation, H4 neuroglioma cells, luminescence (AID 1988); format: functional, cell-based
BJ [9] = assay: cells; format: functional, cell-based; settings: Homo sapiens
BJ [10] = assay: cytotoxicity toward BJ-TERT-LT-ST fibroblasts, dose response, cell-based, RAS-independent, luminescence (AID 1935); format: functional; settings: Homo sapiens;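 note: BJ fibroblasts immortalized with TERT plus LT and ST oncogenes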
[11] = cytotoxicity toward DRD oncogenic fibroblasts, dose response, cell-based, non-viral oncogenic, luminescence (AID 1934); format: functional; settings: Homo sapiens
Streptococcus = assay: Group A Streptococcus viability loss, dose response, counter-screen for streptokinase expression inhibitor project, luminescence, BacTiterGlo (AID 1915); format: functional, organism-based;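 note: potency for reduction of bacterial viability or growth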
BJ [12] = assay: cytotoxicity toward Ras-transformed BJeLR fibroblasts, dose response, cell-based, alamar blue fluorescence, cherrypicked samples (AID 2631); format: functional; settings: Homo sapiens;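 note: confirmatory dose-response assay in RAS-dependent BJ fibroblasts engineered with TERT, LT and ST, with cytotoxicity read by fluorescence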

With `Cc1cc(C=O)c(C)n1-c1ccc(N2CCCCC2)c([N+](=O)[O-])c1` the AC50 [1] was > 20 µM (inactive).

With `CO[C@@H]1CN(C)C(=O)c2cc(NC(=O)c3ccc(Oc4ccccc4)cc3)ccc2OC[C@@H](C)NC[C@@H]1C` the AC50 [2] was 20.7 µM (active).

With `C[C@H](CO)N1C[C@H](C)[C@@H](CN(C)Cc2ccc3c(c2)OCO3)Oc2ccc(NC(=O)Nc3ccc4c(c3)OCO4)cc2CC1=O` the AC50 [3] was 4.28 µM (active) and the AC50 [2] was > 42 µM (inactive).

In the case of `COc1ccc(S(=O)(=O)N2CCCCN3[C@@H](CO)[C@@H](c4ccc(C#CCC(C)C)cc4)[C@@H]3C2)cc1`, the AC50 [3] is reported as 1.63 µM (active) and the AC50 [2] is reported as 18.9 µM (active).

In the case of `C[C@@H]1CN([C@@H](C)CO)C(=O)c2c(c3ccccc3n2C)-c2ccccc2CO[C@@H]1CN(C)Cc1cccc(C(F)(F)F)c1`, the AC50 [3] is reported as 1.64 µM (active) and the AC50 [2] is reported as 14 µM (active).

For `CC1(C)N=C(N)N=C(N)N1c1ccccc1`, the EC50 [4] was 6.38 µM (active), the EC50 [5] was 0.357 µM (active) and the EC50 (BJ [6]) was > 150 µM (not active). For the same molecule, the EC50 [7] was 15.6 µM (active), the EC50 [8] was 1.62 µM (active) and the EC50 (BJ [9]) was 8.15 µM (active). For the same molecule, the EC50 (BJ [10]) was > 150 µM (not active), the EC50 [11] was 14.9 µM (active) and the EC50 (Streptococcus) was 1.3 µM (active). The EC50 (BJ [12]) was > 133 µM (inactive).
